Test results from patent US10806785B2, “Immunomodulator compounds and methods of use” (Incyte Corporation, priority 2016, dated 2020).

Target: PD-1/PD-L1 (Homo sapiens (Human), UniProt Q9NZQ7)
Test: PD-1/PD-L1 binding assay (HTRF)
Summary of the method: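 HTRF read-out (665/620 nm) after 60 min at 25 °C with 1 nM Eu anti-human IgG and 20 nM APC anti-His. Beforehand, inhibitors were preincubated 40 min with Fc-PD-1 (25-167, […] as listed) and His-PD-L1 (19-238, 10 nM) in PBS pH 7.4 with Tween-20, BSA, 1% DMSO; IC50 from log-concentration curve.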

Sequence of PD-1/PD-L1 (Q9NZQ7 19-238): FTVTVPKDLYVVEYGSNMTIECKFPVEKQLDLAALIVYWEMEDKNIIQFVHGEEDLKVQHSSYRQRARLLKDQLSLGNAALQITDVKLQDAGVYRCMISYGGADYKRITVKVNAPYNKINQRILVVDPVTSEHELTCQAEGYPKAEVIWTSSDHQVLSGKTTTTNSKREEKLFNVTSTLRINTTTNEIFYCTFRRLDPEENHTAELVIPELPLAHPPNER

| SMILES | IC50 [nM] |
| --- | --- |
| Cn1c(C(=O)Nc2cccc(-c3cccc(NC(=O)c4nc5c(n4C)CCN(CC4CC4)C5)c3Cl)c2Cl)nc2c1CCN(CC[C@H]1CC[C@H](C(=O)O)CC1)C2 [Example 87, trans-4-(2-(2-((2,2′-dichloro-3′-(5-(cyclopropylmethyl)-1-methyl-4,5,6,7-tetrahydro-1H-imidazo[4,5-c]pyridine-2-carboxamido)-[1,1′-biphenyl]-3-yl)carbamoyl)-1-methyl-1,4,6,7-tetrahydro-5H-imidazo[4,5-c]pyridin-5-yl)ethyl)cyclohexane-1-carboxylic acid] | ≤ 10 |
| CC(C)N1CCc2c(nc(C(=O)Nc3cccc(-c4cccc(NC(=O)c5nc6c(n5C)CCN(CC[C@H]5CC[C@H](C(=O)O)CC5)C6)c4Cl)c3Cl)n2C)C1 [Example 88, trans-4-(2-(2-((2,2′-dichloro-3′-(5-isopropyl-1-methyl-4,5,6,7-tetrahydro-1H-imidazo[4,5-c]pyridine-2-carboxamido)-[1,1′-biphenyl]-3-yl)carbamoyl)-1-methyl-1,4,6,7-tetrahydro-5H-imidazo[4,5-c]pyridin-5-yl)ethyl)cyclohexane-1-carboxylic acid] | ≤ 10 |
| Cn1c(C(=O)Nc2cccc(-c3cccc(NC(=O)c4nc5c(n4C)CCN(C4CCC4)C5)c3Cl)c2Cl)nc2c1CCN(CC[C@H]1CC[C@H](C(=O)O)CC1)C2 [Example 89, trans-4-(2-(2-((2,2′-dichloro-3′-(5-cyclobutyl-1-methyl-4,5,6,7-tetrahydro-1H-imidazo[4,5-c]pyridine-2-carboxamido)-[1,1′-biphenyl]-3-yl)carbamoyl)-1-methyl-1,4,6,7-tetrahydro-5H-imidazo[4,5-c]pyridin-5-yl)ethyl)cyclohexane-1-carboxylic acid] | ≤ 10 |
| Cn1c(C(=O)Nc2cccc(-c3cccc(NC(=O)c4nc5c(n4C)CCN(C4CCCC4)C5)c3Cl)c2Cl)nc2c1CCN(CC[C@H]1CC[C@H](C(=O)O)CC1)C2 [Example 90, trans-4-(2-(2-((2,2′-dichloro-3′-(5-cyclopentyl-1-methyl-4,5,6,7-tetrahydro-1H-imidazo[4,5-c]pyridine-2-carboxamido)-[1,1′-biphenyl]-3-yl)carbamoyl)-1-methyl-1,4,6,7-tetrahydro-5H-imidazo[4,5-c]pyridin-5-yl)ethyl)cyclohexane-1-carboxylic acid] | ≤ 10 |
| Cn1c(C(=O)Nc2cccc(-c3cccc(NC(=O)c4nc5c(n4C)CCN(C4CCCCC4)C5)c3Cl)c2Cl)nc2c1CCN(CC[C@H]1CC[C@H](C(=O)O)CC1)C2 [Example 91, trans-4-(2-(2-((2,2′-dichloro-3′-(5-cyclohexyl-1-methyl-4,5,6,7-tetrahydro-1H-imidazo[4,5-c]pyridine-2-carboxamido)-[1,1′-biphenyl]-3-yl)carbamoyl)-1-methyl-1,4,6,7-tetrahydro-5H-imidazo[4,5-c]pyridin-5-yl)ethyl)cyclohexane-1-carboxylic acid] | ≤ 10 |
| Cn1c(C(=O)Nc2cccc(-c3cccc(NC(=O)c4nc5c(n4C)CCN(C4CCOCC4)C5)c3Cl)c2Cl)nc2c1CCN(CC[C@H]1CC[C@H](C(=O)O)CC1)C2 [Example 92, trans-4-(2-(2-((2,2′-dichloro-3′-(1-methyl-5-(tetrahydro-2H-pyran-4-yl)-4,5,6,7-tetrahydro-1H-imidazo[4,5-c]pyridine-2-carboxamido)-[1,1′-biphenyl]-3-yl)carbamoyl)-1-methyl-1,4,6,7-tetrahydro-5H-imidazo[4,5-c]pyridin-5-yl)ethyl)cyclohexane-1-carboxylic acid] | ≤ 10 |
| Cn1c(C(=O)Nc2cccc(-c3cccc(NC(=O)c4nc5c(n4C)CCN(CC[C@H]4CC[C@H](C(=O)O)CC4)C5)c3Cl)c2Cl)nc2c1CCN(CCO)C2 [Example 93, trans-4-(2-(2-((2,2′-dichloro-3′-(5-(2-hydroxyethyl)-1-methyl-4,5,6,7-tetrahydro-1H-imidazo[4,5-c]pyridine-2-carboxamido)-[1,1′-biphenyl]-3-yl)carbamoyl)-1-methyl-1,4,6,7-tetrahydro-5H-imidazo[4,5-c]pyridin-5-yl)ethyl)cyclohexane-1-carboxylic acid] | ≤ 10 |
| C[C@H](O)CN1CCc2c(nc(C(=O)Nc3cccc(-c4cccc(NC(=O)c5nc6c(n5C)CCN(CC[C@H]5CC[C@H](C(=O)O)CC5)C6)c4Cl)c3Cl)n2C)C1 [Example 94, trans-4-(2-(2-((2,2′-dichloro-3′-(5-((S)-2-hydroxypropyl)-1-methyl-4,5,6,7-tetrahydro-1H-imidazo[4,5-c]pyridine-2-carboxamido)-[1,1′-biphenyl]-3-yl)carbamoyl)-1-methyl-1,4,6,7-tetrahydro-5H-imidazo[4,5-c]pyridin-5-yl)ethyl)cyclohexane-1-carboxylic acid] | ≤ 10 |
| C[C@@H](O)CN1CCc2c(nc(C(=O)Nc3cccc(-c4cccc(NC(=O)c5nc6c(n5C)CCN(CC[C@H]5CC[C@H](C(=O)O)CC5)C6)c4Cl)c3Cl)n2C)C1 [Example 95, trans-4-(2-(2-((2,2′-dichloro-3′-(5-((R)-2-hydroxypropyl)-1-methyl-4,5,6,7-tetrahydro-1H-imidazo[4,5-c]pyridine-2-carboxamido)-[1,1′-biphenyl]-3-yl)carbamoyl)-1-methyl-1,4,6,7-tetrahydro-5H-imidazo[4,5-c]pyridin-5-yl)ethyl)cyclohexane-1-carboxylic acid] | ≤ 10 |
| Cn1c(C(=O)Nc2cccc(-c3cccc(NC(=O)c4nc5c(n4C)CCN(C4CCOCC4)C5)c3Cl)c2Cl)nc2c1CCN(CCc1ccc(C(=O)O)cc1)C2 [Example 96, 4-(2-(2-((2,2′-dichloro-3′-(1-methyl-5-(tetrahydro-2H-pyran-4-yl)-4,5,6,7-tetrahydro-1H-imidazo[4,5-c]pyridine-2-carboxamido)-[1,1′-biphenyl]-3-yl)carbamoyl)-1-methyl-1,4,6,7-tetrahydro-5H-imidazo[4,5-c]pyridin-5-yl)ethyl)benzoic acid] | ≤ 10 |
| Cn1c(C(=O)Nc2cccc(-c3cccc(NC(=O)c4nc5c(n4C)CCN(C4CCC(C(=O)O)CC4)C5)c3Cl)c2Cl)nc2c1CCN(C1CCOCC1)C2 (stereo not drawn) [Example 97, 4-(2-((2,2′-dichloro-3′-(1-methyl-5-(tetrahydro-2H-pyran-4-yl)-4,5,6,7-tetrahydro-1H-imidazo[4,5-c]pyridine-2-carboxamido)-[1,1′-biphenyl]-3-yl)carbamoyl)-1-methyl-1,4,6,7-tetrahydro-5H-imidazo[4,5-c]pyridin-5-yl)cyclohexane-1-carboxylic acid] | ≤ 10 |
| Cn1c(C(=O)Nc2cccc(-c3cccc(NC(=O)c4nc5c(n4C)CCN(C4CCC(C)(C(=O)O)CC4)C5)c3Cl)c2Cl)nc2c1CCN(C1CCOCC1)C2 (stereo not drawn) [Example 98, 4-(2-((2,2′-dichloro-3′-(1-methyl-5-(tetrahydro-2H-pyran-4-yl)-4,5,6,7-tetrahydro-1H-imidazo[4,5-c]pyridine-2-carboxamido)-[1,1′-biphenyl]-3-yl)carbamoyl)-1-methyl-1,4,6,7-tetrahydro-5H-imidazo[4,5-c]pyridin-5-yl)-1-methylcyclohexane-1-carboxylic acid] | ≤ 10 |
